Here are results for one molecule from publication PMC5522529, “Mechanisms of Paradoxical Activation of AMPK by the Kinase Inhibitors SU6656 and Sorafenib” (Cell Chemical Biology, 2017).

In one assay the test system is Erk1/2. The assay is described as follows: Erk1/2 phosphorylation in SYF cells. The format is cell-based, mouse. Conditions: SU6656 100 μM, PP2 100 nM.
The subject of assay [1] is AMPK-related kinases SIK1, SIK2, SIK3, SNARK, MARK2/3 and MARK4. In words: AMPK-related kinase activity in HeLa cells stably expressing LKB1. The format is cell-based, human. The following applies: HeLa cells expressing LKB1, 100 μM, 1 hr. On the procedure: Figure 1 SU6656 Activates AMPK but Not AMPK-Related Kinases (A) HEK293 cells were incubated with the indicated concentrations of SU6656 or berberine (300 μM) for 1 hr; total AMPK activity was assayed in immunoprecipitates (top; mean ± SEM, n = 4), and phosphorylation of AMPK (Thr172), ACC (Ser80), and Raptor (Ser792) analyzed by western blotting (bottom; n = 2). (B) HEK293 cells were incubated with 100 μM SU6656 (1 hr), AMPK complexes containing α1, α2, β1, and β2 immunoprecipitated using isoform-specific antibodies, and AMPK activity measured (mean ± SEM, n = 4). (C) HeLa cells stably expressing LKB1 ([Fogarty et al., 2010]) were incubated with 100 μM SU6656 for 1 hr, AMPK or individual ARKs immunoprecipitated, and kinase assays carried out (antibodies that distinguish MARK2/MARK3 were not available, so they were assayed together). Results are means ± SEM (n = 2). In all panels, asterisks indicate significant differences from controls without SU6656. *p < 0.05, **p < 0.01, ****p < 0.0001. […]

Assay [2] deals with AMPK. Set-up: method as in Bain et al., 2007. Conditions: ref Bain et al., 2007; cited from earlier work.
Assay [3] deals with AMPK. The assay is described as follows: AMPK activation in HeLa cells transfected with GFP-LKB1 WT, FF or FFF mutants. The format is cell-based, human. The following applies: HeLa cells expressing GFP-LKB1 WT, not with GFP control. Here is the method:
Top: AMPK activity (mean ± SEM, n = 4); bottom: western blots showing phosphorylation of Thr172 on AMPK, and of ERK1/2, in cells treated with DMSO (control), SU6656 (100 μM), or PP2 (100 nM) (n = 2). (B) As (A), but in SYF cells. (C) HeLa cells were transfected with DNAs encoding GFP alone, or GFP fused to WT, Y261F/Y365F (FF), or Y36F/Y261F/Y365F (FFF) mutants of LKB1; cells were treated with increasing concentrations of SU6656 for 1 hr and AMPK activity determined (mean ± SEM, n = 4). See also Figure S1. (D) HEK293 cells were transfected with DNAs encoding FLAG-tagged AMPK-α2 with or without a Y436F mutation. Cells were incubated with DMSO (control), 100 μM SU6656, 10 mM phenformin, or 10 μM A23187 for 1 hr; AMPK complexes were immunoprecipitated using anti-FLAG antibody and assayed. The top panels show kinase activities (mean ± SD, n = 3); the bottom panels show blots from the same experiment (n = 2). In all panels, asterisks indicate significant differences from DMSO controls; in (D), there were no significant differences between the WT and Y463F mutant. **p < 0.01, ****p < 0.0001.
We next transiently transfected DNAs encoding GFP, or GFP-tagged wild-type (WT), Y261F/Y365F (FF), or Y36F/Y261F/Y365F (FFF) mutants of LKB1 into HeLa cells, which lack endogenous LKB1.

For a further assay, the system named is LKB1 versus AMPK. Also noted: method as in MRC Kinase Inhibitor Database. Conditions: ref MRC Kinase Inhibitor Database; cited from earlier work.
The target of a further assay is T1, α2β2γ1 complex (Homo sapiens, UniProt P54619+P54646).
T1 construct: bacterially expressed α2-KD or a full-length α2β2γ1 complex, both of which had been phosphorylated using CaMKK2; made in house; host or cells: bacteria
In words: Inactivation of full-length α2β2γ1 complex by PP2Cα. Conditions: 5 mM ATP, AMP 2 mM, SU6656 up to 10 μM. Type of assay: biochemical.

T1 sequence (P54646 whole entry): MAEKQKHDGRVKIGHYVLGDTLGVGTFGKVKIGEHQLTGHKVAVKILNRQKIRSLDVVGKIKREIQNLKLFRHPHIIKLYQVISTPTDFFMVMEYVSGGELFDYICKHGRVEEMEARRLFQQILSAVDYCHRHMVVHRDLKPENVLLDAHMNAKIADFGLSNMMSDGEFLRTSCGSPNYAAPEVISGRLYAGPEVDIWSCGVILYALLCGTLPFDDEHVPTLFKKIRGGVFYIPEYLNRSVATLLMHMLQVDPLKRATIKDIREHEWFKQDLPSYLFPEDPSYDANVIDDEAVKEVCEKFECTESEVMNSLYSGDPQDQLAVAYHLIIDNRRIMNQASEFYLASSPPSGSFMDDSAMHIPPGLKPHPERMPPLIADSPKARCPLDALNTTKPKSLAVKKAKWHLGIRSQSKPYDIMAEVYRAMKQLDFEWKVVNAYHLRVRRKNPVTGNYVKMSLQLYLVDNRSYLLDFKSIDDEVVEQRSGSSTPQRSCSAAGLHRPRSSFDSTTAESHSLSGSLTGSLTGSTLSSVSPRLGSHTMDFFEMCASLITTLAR
T1 sequence (O43741 whole entry partner): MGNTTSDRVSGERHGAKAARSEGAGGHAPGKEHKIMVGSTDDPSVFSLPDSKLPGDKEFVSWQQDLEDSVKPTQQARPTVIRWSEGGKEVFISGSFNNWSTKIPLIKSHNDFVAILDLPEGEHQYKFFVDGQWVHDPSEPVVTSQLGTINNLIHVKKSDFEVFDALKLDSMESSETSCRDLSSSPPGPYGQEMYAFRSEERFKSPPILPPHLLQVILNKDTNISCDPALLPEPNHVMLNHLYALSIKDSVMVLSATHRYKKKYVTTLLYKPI
T1 sequence (P54619 whole entry): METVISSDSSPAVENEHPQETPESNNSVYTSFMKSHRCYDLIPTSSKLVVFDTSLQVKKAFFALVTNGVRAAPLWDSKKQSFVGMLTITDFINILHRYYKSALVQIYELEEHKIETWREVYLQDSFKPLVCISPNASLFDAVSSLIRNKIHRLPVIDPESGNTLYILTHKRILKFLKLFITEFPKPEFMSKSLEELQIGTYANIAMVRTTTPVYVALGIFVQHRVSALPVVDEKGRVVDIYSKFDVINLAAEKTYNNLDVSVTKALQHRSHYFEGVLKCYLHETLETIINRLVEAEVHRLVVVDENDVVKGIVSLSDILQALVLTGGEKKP

For `CN(C)S(=O)(=O)c1ccc2c(c1)/C(=C/c1cc3c([nH]1)CCCC3)C(=O)N2` [SU6656], the Erk1/2 phosphorylation entry with Erk1/2 was “inhibited Erk1/2 phosphorylation”. For the same molecule, in assay [1], the “activity of AMPK-related kinases (ARKs)” value is “none of the ARKs assayed were activated”. In addition, in the assay with AMPK [2], the “inhibition of AMPK relative to Src” value is reported as “inhibits AMPK as effectively as Src”. Also, the “AMPK activation and Thr172 phosphorylation” value in the assay on AMPK [3] was “equally in cells expressing the WT, FF, or FFF mutants”. For the same molecule, the “potency of LKB1 inhibition relative to AMPK inhibition” value in the assay on LKB1 versus AMPK is “inhibition of LKB1 was less potent than that of AMPK”. Moreover, on α2β2γ1 complex, the “protection against inactivation by PP2Cα” value was “did not protect against inactivation”.
